Data reported in PubChem BioAssay AID1508612.

Assay: passive permeability, PAMPA, ADME assay (AID 1508612)
Conditions: pH 7.4, 30.0 min, 50.0 µM

Compound	Papp [×10⁻⁶ cm/s]
CN(C)CC(=O)NC1CCCc2c1cnn2-c1ccc(F)cc1F (configuration not stated)	412
O=C(Nc1ccc(S(=O)(=O)Nc2nccs2)cc1)c1ccnc2ccccc12	2.3
COc1ccc(C(=O)Nc2nc(-c3ccccc3)cs2)c(OC)c1	> 1000
Cc1ccc(N(C)S(=O)(=O)c2ccc(-c3cnc(C4CC4)o3)cc2)cc1	> 1000
O=C1CCCC2=C1C(c1ccncc1Br)N=C(Nc1nc3ccccc3o1)N2 (configuration not stated)	> 1000
COc1ccc(-c2ccc3nc(-c4ccccc4C)oc3c2)c(OC)c1OC	< 1
N#Cc1ccccc1S(=O)(=O)Nc1cnccc1C(=O)Nc1nc(-c2ccccc2)cs1	61.8
O=C(Nc1ccc(F)c(C(F)(F)F)c1)Nc1nnc(-c2ccncc2)s1	38.5
Oc1ccc(CNc2cccc(F)c2)c2cccnc12	< 1
CC(C)(O)/C=C\C(=O)[C@](C)(O)[C@H]1[C@H](O)C[C@]2(C)[C@@H]3CC=C4[C@@H](C=C(O)C(=O)C4(C)C)[C@]3(C)C(=O)C[C@@]12C	184
COc1cc2c(cc1-c1c(C)noc1C)ncc1[nH]c(=O)n([C@H](C)c3ccccn3)c12	858
CN(C)CCCN1c2ccc(O)cc2Sc2ccc(Cl)cc21	> 1000
CNC(=O)c1cc(Oc2ccc(NC(=O)Nc3ccc(Cl)c(C(F)(F)F)c3)c(F)c2)ccn1	< 1
O=C([C@H](Cc1ccc(O[S+](=O)([O-])c2cccc3cnccc23)cc1)N[S+](=O)([O-])c1cccc2cnccc12)N1CCN(Cc2ccccc2)CC1	399
CSc1cc2c(s1)c1cnn(Cc3cccc(N)c3)c(=O)c1n2C	> 1000
Cc1cccc2c(C(=O)O)cc(-c3cccs3)nc12	18.8
COc1ccc(-n2nc(C)c([C@@H]3C=C[C@@H](NCc4ccc(F)cc4)C3)c2C)cc1	> 1000
CC1=C(C(=O)Nc2nncs2)C(c2ccccc2Br)N=C(Nc2nc3ccccc3o2)N1 (configuration not stated)	128
COc1ccccc1-c1[nH]nc2ncc(-c3ccc(C)cc3)nc12	76.2
COc1cc(/C=C(\C#N)c2nc3ccccc3[nH]2)ccc1OCc1ccc(F)cc1	641
Fc1cc(Nc2nc(-c3ccncc3)nc3ccccc23)ccc1C(F)(F)F	641
COC12C(COC(N)=O)C3=C(C(=O)C(C)=C(N)C3=O)N1CC1C2N1C (configuration not stated)	1.95
Cc1ccccc1OCC(O)CO (configuration not stated)	44.4
Cc1c(-c2nsc(NC(=O)c3cccc(Cl)c3)n2)nnn1-c1ccccc1C(F)(F)F	706
Cc1ccc(S(=O)(=O)Nc2ccc(OC(F)(F)F)cc2C(=O)Nc2nc(-c3ccccc3)cs2)cc1	1.6
NC[C@H](O)c1ccc(O)c(O)c1	5.7
COC(=O)CNC(=O)c1nc(-c2ccc(Cl)nc2)c2cnccn12	103

Further lines, results first:

Papp [×10⁻⁶ cm/s]	Compound
976	Cc1cc(/C=C2/C(=O)Nc3ccccc32)cc(C)c1O
613	COc1c(C)c2c(c(O)c1C/C=C(\C)CCC(=O)OCCN1CCOCC1)C(=O)OC2
> 1000	Cc1cc(C)nc(NC(=S)N2CCN(c3cc(C(F)(F)F)nc4ccccc34)CC2)c1
1.8	O=C(NCCN1CCOCC1)C1CC(=O)N(c2n[nH]c3cc(Br)ccc23)C1 (configuration not stated)
> 1000	O=C(NCC1CCN(Cc2cccc(Cl)c2)CC1)Nc1ccc(F)c(Cl)c1
322	CCc1cccc(NC(=O)CSc2nc3ccccc3nc2N2CCCCC2)c1
17.1	CCCC1=Nc2cc(C(=O)NC3CCCCC3)ccc2Sc2ccc(C)cc21
> 1000	CCOc1ccc(CCNC(=O)c2ccnn2Cc2cccc(C)c2)cc1OCC
752	COc1ccc(CCNc2ncnc3onc(C)c23)c(OC)c1
765	CCOC(=O)N1CCN(Cc2nc3c(c(=O)n(C)c(=O)n3C)n2CCC(C)C)CC1
71.9	O=C(c1ccc2c(c1)OCO2)N1CCC(Cc2nc(-c3cnccn3)no2)CC1
253	CC(=O)N1CCN(c2ccc(OCc3nn(C)c(C)c3-c3cccc4c(CCCOc5cccc6ccccc56)c(C(=O)O)n(Cc5cccnc5)c34)cc2)CC1
40.3	NC(=O)Nc1cc(-c2ccc(CN3CCOCC3)cc2)sc1C(N)=O
> 1000	COc1ccc(CNC(=O)c2sc3nc(C)cc(C)c3c2N)cc1
780	CN(C)c1cccc(-c2nc(N3CCC(C(N)=O)CC3)ncc2F)c1
> 1000	Cc1cccc(-n2cnc3cc(C(=O)N4CCC(Br)CC4)ccc32)c1
818	CC(C)(C)OC(=O)N[C@@H](Cc1ccc(OS(=O)(=O)c2cccc3cnccc23)cc1)C(=O)N1CCCN(C(=O)OC(C)(C)C)CC1
106	Cn1c2cc(S(C)=O)sc2c2cnn(Cc3cccc(N)c3)c(=O)c21 (configuration not stated)
360	COc1ccc(-n2nc(C3CCCN(C(=O)Nc4ccccc4)C3)[nH]c2=O)cc1 (configuration not stated)
2.5	CCN(CCCO)CCCOc1ccc2c(Nc3cc(CC(=O)Nc4cccc(F)c4)[nH]n3)ncnc2c1
356	CC(C)(C)C1CCc2[nH]c3ccccc3c(=O)c2C1 (configuration not stated)
912	Cc1cccc(-n2cnc3cc(C(=O)N4CCCCC4)ccc32)c1
< 1	COc1ncc(-c2ccc3c(Nc4cc(Oc5cc(F)cc(F)c5)cc(C(=O)O)c4)c(S(=O)(=O)NC4CC4)cnc3c2)c(OC)n1
< 1	O=c1c(-c2ccc(O)cc2)coc2cc(O)ccc12
< 1	CC(=O)Nc1ccc(-c2csc(N3CCC(C(N)=O)CC3)n2)cc1
